This is an account of results in paper PMC6630832, “3-Vinylazetidin-2-Ones: Synthesis, Antiproliferative and Tubulin Destabilizing Activity in MCF-7 and MDA-MB-231 Breast Cancer Cells” (Pharmaceuticals, 2019).

Data set [1] has as its system human MDA-MB-231 breast cancer cells. The data set can be described thus: Cell viability (Alamar Blue) antiproliferative assay in MDA-MB-231 cells. It is filed as cell-based. The conditions noted are these: mean ± SEM. How it is done: (§1) The human breast carcinoma cell line MCF-7, was purchased from the European Collection of Animal Cell Cultures (ECACC) and was cultured in Eagle’s minimum essential medium with 10% fetal bovine serum, 2 mM L-glutamine and 100 μg/mL penicillin/streptomycin. The medium was supplemented with 1% non-essential amino acids. The human breast carcinoma cell line MDA-MB-231 was purchased from the European Collection of Animal Cell Cultures (ECACC). MDA-MB-231 cells were maintained in Dulbecco’s modified Eagle’s medium (DMEM) supplemeted with 10% (v/v) fetal bovine serum, 2 mM L-glutamine and 100 μg/mL penicillin/streptomycin (complete medium). All media contained 100 U/mL penicillin and 100 μg/mL streptomycin. Triple negative breast cancer Hs578T cells and its invasive variant Hs578Ts(i)8 were obtained as a kind gift from Dr. Susan McDonnell, School of Chemical and Bioprocess Engineering, University College Dublin and were cultured in Dulbecco’s Modified Eagle’s Media (DMEM) with GlutaMAX^TM-I, with the same supplement as for MDA-MB-231 cells in the absence of non-essential amino acids. HEK-293T normal epithelial embryonic kidney cells were cultured in Dulbecco’s Modified Eagle’s Medium (DMEM) with GlutaMAX^TM-I in the absence of non-essential amino acids. K562 and HL-60 cells were originally obtained from the European Collection of Cell Cultures (Salisbury, UK).The K562 cells were derived from a patient in the blast crisis stage of CML HL-60 cells were derive from a patient with acute myeloid leukaemia. Cells were cultured in RPMI-1640 Glutamax medium supplemented with 10% FCS media, and 100 μg/mL penicillin/streptomycin. Cells were maintained at 37 °C in 5% CO2 in a humidified incubator. All cells were sub-cultured three times/week (adherent cells by trypsinisation).
(§2) Cells were seeded at a density of 5 × 10^3 cells/well (MCF-7), in triplicate in 96-well plates. After 24 h, cells were then treated with either medium alone, vehicle [1% ethanol (v/v)] or with serial dilutions of CA-4 or β-lactam analogue. Cell viability for MCF-7 and MDA-MB-231 was analysed using the Alamar Blue assay (Invitrogen Corp, Thermo Fisher Scientific, 168 Third Avenue, Waltham, MA, USA) according to the manufacturer’s instructions. After 72 h, Alamar Blue [10% (v/v)] was added to each well and plates were incubated for 3–5 h at 37 °C in the dark. Fluorescence was read using a 96-well fluorimeter with excitation at 530 nm and emission at 590 nm. Results were expressed as percentage viability relative to vehicle control (100%). Dose response curves were plotted and IC50 values (concentration of drug resulting in 50% reduction in cell survival) were obtained using the commercial software package Prism (GraphPad Software, Inc., 2365 Northside, Suite 560, San Diego, CA, USA). Experiments were performed in triplicate on at least three separate occasions.
(Resazurin is reduced to fluorescent resorufin, in cell work by metabolically active cells.)

In data set [2] the test system is human MCF-7 breast cancer cells. The data set can be described thus: Cell viability (Alamar Blue) antiproliferative assay in MCF-7 cells. It is filed as cell-based. The note with it: Homo sapiens, MCF7, 72 h, human MCF-7 breast cancer cells; 72 h; mean ± SEM; read-out: Antiproliferative Activity IC50. How it is done: as §1, §2
Another data set has as its system MCF-7 cells. In words: Lactate dehydrogenase (LDH) assay for cytotoxicity. It is filed as cell-based. The conditions noted are these: Homo sapiens, MCF7, 72 h, read-out: cell death (LDH assay). How it is done:
Cytotoxicity was determined using the CytoTox 96 non-radioactive cytotoxicity assay (Promega Corporation; 2800 Woods Hollow Road, Madison, WI, USA) following the manufacturer’s protocol. Briefly, MCF-7 cells were seeded in 96-well plates, incubated for 24 hr and then treated with test compounds (7d, 7h, 7i, 7q, 7r, 7u, 7t, 10d, 10f, 12) as described in the cell viability assay above. After 72 h, 20 μL of ‘lysis solution (10X)’ was added to control wells and the plate was incubated for a further 1 hr to ensure 100% death. 50 μL of supernatant was carefully removed from each well and transferred to a new 96-well plate. 50 μL of reconstituted ‘substrate mix’ was added and the plate was placed in the dark at room temperature for 30 min. After this period, 50 μL of ‘stop solution’ was added to each well and the absorbance was read at a wavelength of 490 nm using a Dynatech MR5000 plate reader. The percentage cell death at 10 μM was calculated.

For the next data set, the target named is T1, purified bovine tubulin (Bos taurus, UniProt P81947+Q6B856).
T1 construct: Purified (>99%) bovine brain tubulin (3 mg/mL); purchased Cytoskeleton Inc. BK006; host or cells: bovine brain (tissue-purified)
T1 sequence (Q6B856 whole entry): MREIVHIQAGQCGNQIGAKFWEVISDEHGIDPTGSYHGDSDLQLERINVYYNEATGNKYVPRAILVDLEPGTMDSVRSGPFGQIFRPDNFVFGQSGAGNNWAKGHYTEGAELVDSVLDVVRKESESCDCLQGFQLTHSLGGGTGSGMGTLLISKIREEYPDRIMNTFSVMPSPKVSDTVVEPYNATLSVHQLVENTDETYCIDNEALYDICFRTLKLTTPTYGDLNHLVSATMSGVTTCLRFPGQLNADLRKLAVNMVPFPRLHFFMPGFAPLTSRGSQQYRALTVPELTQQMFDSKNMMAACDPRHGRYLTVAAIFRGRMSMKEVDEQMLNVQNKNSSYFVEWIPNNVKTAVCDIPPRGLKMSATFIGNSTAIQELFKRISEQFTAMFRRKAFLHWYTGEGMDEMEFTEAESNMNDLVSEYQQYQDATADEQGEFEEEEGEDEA
T1 sequence (P81947 whole entry): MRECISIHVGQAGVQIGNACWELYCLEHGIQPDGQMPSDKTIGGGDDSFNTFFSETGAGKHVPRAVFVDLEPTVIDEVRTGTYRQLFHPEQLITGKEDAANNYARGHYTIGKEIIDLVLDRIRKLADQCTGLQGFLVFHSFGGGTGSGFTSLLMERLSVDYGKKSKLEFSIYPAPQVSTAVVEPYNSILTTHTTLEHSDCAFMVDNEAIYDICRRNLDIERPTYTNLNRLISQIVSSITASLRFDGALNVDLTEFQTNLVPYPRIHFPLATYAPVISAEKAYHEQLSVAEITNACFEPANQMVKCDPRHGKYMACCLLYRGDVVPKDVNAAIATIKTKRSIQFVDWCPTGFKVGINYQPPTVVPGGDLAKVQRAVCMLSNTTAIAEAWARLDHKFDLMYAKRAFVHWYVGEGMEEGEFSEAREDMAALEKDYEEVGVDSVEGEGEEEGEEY
The data set can be described thus: Tubulin polymerization assay. Type of data set: biochemical. The note with it: 10 μM; for vmax of tubulin polymerization: absorbance at 340 nm, 37 °C. As to the method:
The assembly of purified bovine tubulin was monitored using a kit, BK006, purchased from Cytoskeleton Inc., 1830 S Acoma St, Denver, CO, 80223, USA.. The assay was carried out in accordance with the manufacturer’s instructions in the tubulin polymerisation assay kit manual using the standard assay conditions. The values reported represent the average values from two independent assays. Purified (>99%) bovine brain tubulin (3 mg/mL) in a buffer consisting of 80 mM PIPES (pH 6.9), 0.5 mM EGTA, 2 mM MgCl2, 1 mM GTP and 10% glycerol was incubated at 37 °C in the presence of either vehicle (2% (v/v) ddH2O) or compounds 7h, 7i, 7s, 7t (initially 10 µM in EtOH); CA-4 and Paclitaxel were used as controls. Light is scattered proportionally to the concentration of polymerised microtubules in the assay. Therefore, tubulin assembly was monitored turbidimetrically at 340 nm at 37 °C in a Spectramax 340 PC spectrophotometer (Molecular Devices, 3860 N 1st St, San Jose, CA, USA). The absorbance was measured at 30 s intervals for 60 min.

For the next data set, the system named is NCI 60 cell line panel. In words: NCI60 cell line screen (SRB assay), whole panel or sub-panels. The note with it: mean over the total NCI 60 cell line panel. Type of data set: cell-based. The source says:
The results are summarized in Tables S3–S5, Supplementary Information.
Table S5: NCI 60 cell line mean screening results for selected compounds NCI Ref. Compound GI50 TGI LC50 […]
a GI50 and LC50 are the mean concentrations required to inhibit the growth and kill 50 % of the cells over the total NCI 60 cell line panel in the assay respectively. […]
over the total NCI 60 cell line panel.
(Sulforhodamine B stains cellular protein and so reports cell mass.)

For data set [3], the system named is microtubule network of MCF-7 cells. In words: Immunofluorescence microscopy. Type of data set: cell-based, human. The conditions noted are these: 1 μM, 16 h. As to the method: Confocal microscopy was used to study the effects of drug treatment on MCF-7 cytoskeleton. For immunofluorescence, MCF-7 cells were seeded at 1 × 10^5 cells/mL on eight chamber glass slides (BD Biosciences, 2350 Qume Dr, San Jose, CA, USA). Cells were either untreated or treated with vehicle [1% ethanol (v/v)], paclitaxel (1 μM), combretastatin A-4 (100 nM) or compound 7s (100 nM) for 16 h. Following treatment cells were gently washed in PBS, fixed for 20 min with 4% paraformaldehyde in PBS and permeabilised in 0.5% Triton X-100. Following washes in PBS containing 0.1% Tween (PBST), cells were blocked in 5% bovine serum albumin diluted in PBST. Cells were then incubated with mouse monoclonal anti-α-tubulin−FITC antibody (clone DM1A) (Sigma-Aldrich, 2033 Westport Center Dr, St. Louis, MO, USA) (1:100) for 2 h at room temperature. Following washes in PBST, cells were incubated with Alexa Fluor 488 dye (1:450) for 1 h at room temperature. Following washes in PBST, the cells were mounted in Ultra Cruz Mounting Media (Santa Cruz Biotechnology Inc., 10410 Finnell Street, Dallas, TX, USA) containing 4,6-diamino-2-phenolindol dihydrochloride (DAPI). Images were captured by Leica SP8 confocal microscopy with Leica application suite X software (Leica Microsystems CMS GmbH Am Friedensplatz 3 D-68165 Mannheim, Germany). All images in each experiment were collected on the same day using identical parameters. Experiments were performed on three independent occasions.

The structures appear in SMILES notation.

For `C=CC1C(=O)N(c2cc(OC)c(OC)c(OC)c2)C1c1ccc(Cl)cc1` (centres unmarked) [Compound 7b, 4-(4-Chlorophenyl)-1-(3,4,5-trimethoxyphenyl)-3-vinylazetidin-2-one], the melting point – broadly, the temperature, or range, at which the solid turns liquid – worked out at 104 °C. Also, in data set [1], inhibition was half-maximal at 191 ± 16 nM (IC50). In data set [2], the IC50 (commonly the midpoint of a concentration-inhibition curve) turned out to be 690 ± 110 nM.

With `C=CC1C(=O)N(c2cc(OC)c(OC)c(OC)c2)C1c1ccc([N+](=O)[O-])cc1` (centres unmarked) [Compound 7d, 4-(4-Nitrophenyl)-1-(3,4,5-trimethoxyphenyl)-3-vinylazetidin-2-one], the IC50 in data set [2] came to 3830 ± 530 nM. For the same molecule, in the data set with MCF-7 cells, the cytotoxicity at 10 µM was determined as 7.2%.

As to `C=CC1C(=O)N(c2cc(OC)c(OC)c(OC)c2)C1c1ccc(OCC)cc1` (centres unmarked) [Compound 7i, 4-(4-Ethoxyphenyl)-1-(3,4,5-trimethoxyphenyl)-3-vinylazetidin-2-one], the figures for the concentration for half-maximal inhibition (IC50) in data set [1] and in data set [2] were 61 ± 7 nM and 37 ± 3.3 nM, respectively. For the same molecule, in the data set with MCF-7 cells, the cytotoxicity at 10 µM came to 8.5%. The “vmax of tubulin polymerization” value at purified bovine tubulin is on record as 3.84 mOD/min. Also, at purified bovine tubulin (with reference to ethanol control), the “fold reduction in vmax of tubulin polymerization” value is listed as 2.19 fold.

`C=CC1C(=O)N(c2cc(OC)c(OC)c(OC)c2)C1c1ccc2ccccc2c1` (centres unmarked) [Compound 7n, 4-Naphthalen-2-yl-1-(3,4,5-trimethoxyphenyl)-3-vinylazetidin-2-one] gave a melting point of 145 to 146 °C. Further, in data set [1], half-maximal inhibition (IC50) was put at 77 ± 9 nM. Further, the IC50 in data set [2] was 68 ± 10 nM.

Regarding `C=CC1C(=O)N(c2cc(OC)c(OC)c(OC)c2)C1c1ccc(C#N)cc1` (centres unmarked) [Compound 7q, 4-[4-Oxo-1-(3,4,5-trimethoxyphenyl)-3-vinyl-azetidin-2-yl]benzonitrile], the IC50 in data set [2] was determined as 6250 ± 5050 nM. In addition, the cytotoxicity at 10 µM in the data set on MCF-7 cells stood at 4.5%.

On to `C=CC1C(=O)N(c2cc(OC)c(OC)c(OC)c2)C1c1ccc(SC)cc1` (centres unmarked) [Compound 7r, 4-(4-Methylsulfanylphenyl)-1-(3,4,5-trimethoxyphenyl)-3-vinylazetidin-2-one], for which the IC50 in data set [2] was 51 ± 1 nM. Further, in the data set with MCF-7 cells, the cytotoxicity at 10 µM was found to be 4.5%.

As to `C=CC1C(=O)N(c2cc(OC)cc(OC)c2)C1c1ccc(OC)cc1` (centres unmarked) [Compound 7u, 1-(3,5-Dimethoxyphenyl)-4-(4-methoxyphenyl)-3-vinylazetidin-2-one], in data set [2], the 50% inhibitory concentration (IC50) worked out at 170 ± 70 nM. The cytotoxicity at 10 µM in the data set on MCF-7 cells stood at 3.5%.

As to `COc1ccc(C2C(C(C)(C)O)C(=O)N2c2cc(OC)c(OC)c(OC)c2)cc1O` (centres unmarked) [Compound 10d, 4-(3-Hydroxy-4-methoxyphenyl)-3-(1-hydroxy-1-methylethyl)-1-(3,4,5-trimethoxy-phenyl)azetidin-2-one], the IC50 in data set [2] is 544 ± 310 nM. In the data set on MCF-7 cells, the cytotoxicity at 10 µM was determined as 9.8%.

As for `COc1ccc(C2C(C(O)C=Cc3ccccc3)C(=O)N2c2cc(OC)c(OC)c(OC)c2)cc1O` (centres unmarked) [Compound 10f, 4-(3-Hydroxy-4-methoxy-phenyl)-3-(1-hydroxy-3-phenyl-allyl)-1-(3,4,5-trimethoxy-phenyl)-azetidin-2-one], in data set [2], the IC50 amounted to 46 ± 41 nM. In addition, the cytotoxicity at 10 µM in the data set on MCF-7 cells worked out at 7.6%.

For `CC=C1C(=O)N(c2cc(OC)c(OC)c(OC)c2)C1c1ccc(OC)c(O)c1` (centres unmarked) [Compound 12, 3-Ethylidene-4-(3-hydroxy-4-methoxy-phenyl)-1-(3,4,5-trimethoxy-phenyl)-azetidin-2-one], the IC50 in data set [2] was 502 ± 212 nM. Further, the cytotoxicity at 10 µM in the data set with MCF-7 cells was determined as 8.4%.

`COc1ccc(C2CC(=O)N2c2cc(OC)c(OC)c(OC)c2)cc1OP(=O)(O)O` (centres unmarked) [Compound 17a, 2-Methoxy-5-(1-(3,4,5-trimethoxyphenyl)-4-oxoazetidin-2-yl)phenyl dihydrogen phosphate]: in the data set on NCI 60 cell line panel, the “TGI (mean)” value was determined as 39800 nM. Also, the 50% growth inhibitory concentration (GI50) – broadly, the concentration that inhibits growth by half – with NCI 60 cell line panel (read-out: GI50 (mean)) was 141 nM. Further, the CC50 with NCI 60 cell line panel (read-out: LC50 (mean)) turned out to be 87100 nM. Moreover, the figures for the IC50 in data set [1] and in data set [2] were 30 ± 4 nM and 22 ± 1.5 nM, respectively.

In the case of `CC(=O)O[C@H]1C(=O)[C@@]2(C)[C@H]([C@H](OC(=O)c3ccccc3)[C@]3(O)C[C@H](OC(=O)[C@H](O)[C@@H](NC(=O)c4ccccc4)c4ccccc4)C(C)=C1C3(C)C)[C@]1(OC(C)=O)CO[C@@H]1C[C@@H]2O` [paclitaxel, reference compound], in data set [3], the “effect on microtubule network” value is “Formation of microtubule bundles and pseudo asters”. Further, the “vmax of tubulin polymerization” value on purified bovine tubulin was 89.4 mOD/min.
